Results: PubChem BioAssay (NCI)
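GI50: concentration for 50% inhibition of growth. TGI: total growth inhibition.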

Key:
Assay in all cases: DTP human tumour cell line panel, 384-well format
[1] = test system: CCRF-CEM leukemia
[2] = test system: OVCAR-8 ovarian
[3] = test system: HOP-62 NSCLC
[4] = test system: SK-MEL-5 melanoma
[5] = test system: ACHN renal
[6] = test system: RPMI-8226 leukemia
[7] = test system: SR leukemia
[8] = test system: SF-539 CNS
[9] = test system: K-562 leukemia
[10] = test system: SF-295 CNS
[11] = test system: SK-MEL-2 melanoma
[12] = test system: MDA-MB-435 melanoma
[13] = test system: OVCAR-4 ovarian
[14] = test system: TK-10 renal
[15] = test system: SK-OV-3 ovarian
[16] = test system: NCI-H522 lung
[17] = test system: SK-MEL-28 melanoma
[18] = test system: HCT-116 colon
[19] = test system: SW-620 colon
[20] = test system: HL-60(TB) leukemia
[21] = test system: NCI-H226 lung
[22] = test system: RXF 393 renal
[23] = test system: MALME-3M melanoma
[24] = test system: T-47D breast
[25] = test system: HCC-2998 colon
[26] = test system: SNB-19 CNS
[27] = test system: HCT-15 colon
[28] = test system: A498 renal
[29] = test system: MOLT-4 leukemia
[30] = test system: MDA-MB-231 breast
[31] = test system: A549 NSCLC
[32] = test system: SF-268 CNS
[33] = test system: M14 melanoma
[34] = test system: UACC-62 melanoma
[35] = test system: IGROV1 ovarian
[36] = test system: COLO 205 colon
[37] = test system: OVCAR-5 ovarian
[38] = test system: KM12 colon
[39] = test system: HT29 colon
[40] = test system: SN12C renal
[41] = test system: OVCAR-3 ovarian
[42] = test system: 786-0 renal
[43] = test system: MDA-MB-468 breast
[44] = test system: UACC-257 melanoma
[45] = test system: NCI-H460 NSCLC
[46] = test system: DU-145 prostate
[47] = test system: NCI-H23 lung
[48] = test system: NCI-H322M lung
[49] = test system: HOP-92 NSCLC
[50] = test system: NCI/ADR-RES ovarian
[51] = test system: CAKI-1 renal
[52] = test system: LOX IMVI melanoma
[53] = test system: UO-31 renal
[54] = test system: U251 glioblastoma
[55] = test system: BT-549 breast
[56] = test system: MCF7 breast
[57] = test system: PC-3 prostate

Work on `COc1ccc([C@H](CC(=O)O)N2CCN(CCCc3ccc4c(n3)NCCC4)C2=O)cn1` yielded a GI50 [1] of 34.7 µM, a TGI [1] of over 100 µM and a GI50 [2] of 11.7 µM. For the same compound, the TGI [2] was over 100 µM, the GI50 [3] was 1.24 µM and the TGI [3] was 21.7 µM. For the same compound, the GI50 [4] was 83.8 µM, the TGI [4] was over 100 µM and the GI50 [5] was 0.516 µM. It also gave a TGI [5] of 52.3 µM, a GI50 [6] of 7.91 µM and a TGI [6] of 21.1 µM. It also gave a GI50 [7] of 31.5 µM, a TGI [7] of 86.5 µM and a GI50 [8] of 10.1 µM. The TGI [8] was 49.2 µM, the GI50 [9] was 65.8 µM and the TGI [9] was over 100 µM. For the same compound, the GI50 [10] was 41.1 µM, the TGI [10] was over 100 µM and the GI50 [11] was 0.0476 µM. The TGI [11] was over 100 µM, the GI50 [12] was 96.3 µM and the TGI [12] was over 100 µM. For the same compound, the GI50 [13] was 0.0228 µM, the TGI [13] was 15.2 µM and the GI50 [14] was 0.0253 µM. For the same compound, the TGI [14] was 0.13 µM, the GI50 [15] was 3.35 µM and the TGI [15] was 65.4 µM. The GI50 [16] was 0.151 µM, the TGI [16] was 14.6 µM and the GI50 [17] was 44.5 µM. It also gave a TGI [17] of over 100 µM, a GI50 [18] of 35.3 µM and a TGI [18] of over 100 µM. The GI50 [19] was 88.2 µM, the TGI [19] was over 100 µM and the GI50 [20] was over 100 µM. The TGI [20] was over 100 µM, the GI50 [21] was 1.61 µM and the TGI [21] was 42.6 µM. It also gave a TGI [22] of 0.0412 µM, a GI50 [23] of 25.4 µM and a TGI [23] of over 100 µM. For the same compound, the GI50 [24] was 14.2 µM, the TGI [24] was 51 µM and the GI50 [25] was 42.9 µM. For the same compound, the TGI [25] was over 100 µM, the GI50 [26] was 0.302 µM and the TGI [26] was over 100 µM. The GI50 [27] was 44.7 µM, the TGI [27] was over 100 µM and the GI50 [28] was 0.0192 µM. It also gave a TGI [28] of 1.04 µM, a GI50 [29] of 21.5 µM and a TGI [29] of 66.3 µM. For the same compound, the GI50 [30] was 1.73 µM, the TGI [30] was 78.3 µM and the GI50 [31] was 7.2 µM. For the same compound, the TGI [31] was over 100 µM, the GI50 [32] was 0.336 µM and the TGI [32] was 28.1 µM. The GI50 [33] was 40.6 µM, the TGI [33] was over 100 µM and the GI50 [34] was 38 µM. It also gave a TGI [34] of over 100 µM, a GI50 [35] of 0.914 µM and a TGI [35] of 15.9 µM. The GI50 [36] was 36.8 µM, the TGI [36] was over 100 µM and the GI50 [37] was 0.0927 µM. The TGI [37] was 62.9 µM, the GI50 [38] was 55.7 µM and the TGI [38] was over 100 µM. It also gave a GI50 [39] of 32.5 µM, a TGI [39] of over 100 µM and a GI50 [40] of 36.7 µM. It also gave a TGI [40] of over 100 µM, a GI50 [41] of 13.3 µM and a TGI [41] of over 100 µM. It also gave a GI50 [42] of 0.495 µM, a TGI [42] of 24.9 µM and a GI50 [43] of 23.3 µM. For the same compound, the TGI [43] was 68.8 µM, the GI50 [44] was 44.7 µM and the TGI [44] was over 100 µM. It also gave a GI50 [45] of 20.3 µM, a TGI [45] of over 100 µM and a GI50 [46] of 1.13 µM. The TGI [46] was over 100 µM, the GI50 [47] was over 100 µM and the TGI [47] was over 100 µM. It also gave a GI50 [48] of 52.6 µM, a TGI [48] of over 100 µM and a GI50 [49] of 0.166 µM. The TGI [49] was 0.933 µM, the GI50 [50] was over 100 µM and the TGI [50] was over 100 µM. The GI50 [51] was 0.023 µM, the TGI [51] was 0.132 µM and the GI50 [52] was 21.1 µM. The TGI [52] was 67.1 µM, the GI50 [53] was 1.29 µM and the TGI [53] was 8.86 µM. The GI50 [54] was 0.561 µM, the TGI [54] was over 100 µM and the GI50 [55] was 0.162 µM. For the same compound, the TGI [55] was 0.564 µM, the GI50 [56] was 30.6 µM and the TGI [56] was over 100 µM. It also gave a GI50 [57] of 29.1 µM and a TGI [57] of over 100 µM.
